Measurements: patent publication US20230085307A1, “PYRIDAZINONE COMPOUND AND HERBICIDE” (NISSAN CHEMICAL CORPORATION, priority 2019, published 2023)

Assays:
[1] = system: rice flat sedge; experiment: Test Example 3: herbicidal effect by foliage application, Wagner pot (Table 18, symbol E); type: in vivo, rice flat sedge (Cyperus iria); details: 320 g/ha
Procedure, shortened: (§1)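 Plants were sown in alluvial soil held under 0.1–0.5 cm standing water and grown 14 days in a greenhouse at 25–30 °C. An emulsifiable formulation, water-diluted to the set dose, was then sprayed onto the foliage, and effects were scored three weeks later using previously defined criteria.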

[2] = system: blackgrass; experiment: Test Example 5: herbicidal effect by foliage application, plastic box (Table 20, symbol J); type: in vivo, blackgrass (Alopecurus myosuroides); details: foliage application, 320 g/ha, evaluated three weeks after application
Procedure, shortened: (§2)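 Sow seeds spot-wise in sterilized diluvial soil; cover with ~1.5 cm soil. Grow 14 days in greenhouse, 25° C. to 30° C. Spray foliage with emulsion diluted to predetermined amount. Rate effect after 3 weeks.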

[3] = system: windgrass; experiment: Test Example 5: herbicidal effect by foliage application, plastic box (Table 20, symbol L); type: in vivo, windgrass (Apera spica-venti); details: foliage application, 320 g/ha, evaluated three weeks after application
Procedure, shortened: as §2

[4] = system: blackgrass; experiment: Test Example 4: herbicidal effect by soil treatment (Table 19, symbol J); type: in vivo, blackgrass (Alopecurus myosuroides); details: 320 g/ha
Procedure, shortened: (§3)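 Soil-surface application: an emulsion agent diluted with water to the predetermined dose is sprayed uniformly over seeds lying under roughly 1.5 cm of sterilized diluvial soil. Boxes stay in a greenhouse at 25° C. to 30° C. Three weeks later, each species is graded on previously defined criteria.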

[5] = system: chickweed; experiment: Test Example 5: herbicidal effect by foliage application, plastic box (Table 20, symbol P); type: in vivo, common chickweed (Stellaria media); details: foliage application, 320 g/ha, evaluated three weeks after application
Procedure, shortened: as §2

[6] = system: Japanese bulrush; experiment: Test Example 2: herbicidal activity, application during weed generation under submerged conditions (Table 17, symbol B); type: in vivo, Japanese bulrush (Schoenoplectus juncoides); details: AAH 320 g/ha; application during weed generation, submerged conditions
Procedure, shortened: (§4)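 Alluvial soil in Wagner pots was flooded to 4 cm depth and sown with the three weeds together; pots were kept in a greenhouse at 25° C. to 30° C. At the one to two leaf stage, an emulsion formulation diluted in water to a set rate went onto the water surface; scored three weeks later.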

[7] = system: southern crabgrass; experiment: Test Example 5: herbicidal effect by foliage application, plastic box (Table 20, symbol F); type: in vivo, southern crabgrass (Digitaria ciliaris); details: foliage application, 320 g/ha, evaluated three weeks after application
Procedure, shortened: as §2

[8] = system: persian speedwell; experiment: Test Example 5: herbicidal effect by foliage application, plastic box (Table 20, symbol R); type: in vivo, Persian speedwell (Veronica persica); details: foliage application, 320 g/ha, evaluated three weeks after application
Procedure, shortened: as §2

[9] = system: green foxtail; experiment: Test Example 4: herbicidal effect by soil treatment (Table 19, symbol G); type: in vivo, green foxtail (Setaria viridis); details: 320 g/ha
Procedure, shortened: as §3

[10] = system: barnyard grass; experiment: Test Example 5: herbicidal effect by foliage application, plastic box (Table 20, symbol H); type: in vivo, barnyard grass (Echinochloa crus-galli); details: foliage application, 320 g/ha, evaluated three weeks after application
Procedure, shortened: as §2

[11] = system: oval-leafed pondweed; experiment: Test Example 2: herbicidal activity, application during weed generation under submerged conditions (Table 17, symbol C); type: in vivo, oval-leafed pondweed (Monochoria vaginalis); details: AAH 320 g/ha; application during weed generation, submerged conditions
Procedure, shortened: as §4

[12] = system: barnyard grass; experiment: Test Example 3: herbicidal effect by foliage application, Wagner pot (Table 18, symbol H); type: in vivo, barnyard grass (Echinochloa crus-galli); details: 320 g/ha
Procedure, shortened: as §1

[13] = system: lambsquarters; experiment: Test Example 4: herbicidal effect by soil treatment (Table 19, symbol O); type: in vivo, lambsquarters (Chenopodium album); details: 320 g/ha
Procedure, shortened: as §3

[14] = system: Italian ryegrass; experiment: Test Example 5: herbicidal effect by foliage application, plastic box (Table 20, symbol K); type: in vivo, Italian ryegrass (Lolium multiflorum); details: foliage application, 320 g/ha, evaluated three weeks after application
Procedure, shortened: as §2

[15] = system: late watergrass; experiment: Test Example 2: herbicidal activity, application during weed generation under submerged conditions (Table 17, symbol A); type: in vivo, late watergrass (Echinochloa oryzicola); details: AAH 320 g/ha; application during weed generation, submerged conditions
Procedure, shortened: as §4

[16] = system: velvetleaf; experiment: Test Example 4: herbicidal effect by soil treatment (Table 19, symbol M); type: in vivo, velvetleaf (Abutilon theophrasti); details: 320 g/ha
Procedure, shortened: as §3

[17] = system: chickweed; experiment: Test Example 4: herbicidal effect by soil treatment (Table 19, symbol P); type: in vivo, common chickweed (Stellaria media); details: 320 g/ha
Procedure, shortened: as §3

[18] = system: redroot pigweed; experiment: Test Example 4: herbicidal effect by soil treatment (Table 19, symbol N); type: in vivo, redroot pigweed (Amaranthus retroflexus); details: 320 g/ha
Procedure, shortened: as §3

[19] = system: barnyard grass; experiment: Test Example 4: herbicidal effect by soil treatment (Table 19, symbol H); type: in vivo, barnyard grass (Echinochloa crus-galli); details: 320 g/ha
Procedure, shortened: as §3

[20] = system: lambsquarters; experiment: Test Example 5: herbicidal effect by foliage application, plastic box (Table 20, symbol O); type: in vivo, lambsquarters (Chenopodium album); details: foliage application, 320 g/ha, evaluated three weeks after application
Procedure, shortened: as §2

[21] = system: wild oat; experiment: Test Example 4: herbicidal effect by soil treatment (Table 19, symbol I); type: in vivo, wild oat (Avena fatua); details: 320 g/ha
Procedure, shortened: as §3

[22] = system: Chinese sprangletop; experiment: Test Example 3: herbicidal effect by foliage application, Wagner pot (Table 18, symbol D); type: in vivo, chinese sprangletop (Leptochloa chinensis); details: 320 g/ha
Procedure, shortened: as §1

[23] = system: Italian ryegrass; experiment: Test Example 4: herbicidal effect by soil treatment (Table 19, symbol K); type: in vivo, Italian ryegrass (Lolium multiflorum); details: 320 g/ha
Procedure, shortened: as §3

[24] = system: false cleavers; experiment: Test Example 4: herbicidal effect by soil treatment (Table 19, symbol Q); type: in vivo, false cleavers (Galium spurium); details: 320 g/ha
Procedure, shortened: as §3

[25] = system: windgrass; experiment: Test Example 4: herbicidal effect by soil treatment (Table 19, symbol L); type: in vivo, windgrass (Apera spica-venti); details: 320 g/ha
Procedure, shortened: as §3

[26] = system: velvetleaf; experiment: Test Example 5: herbicidal effect by foliage application, plastic box (Table 20, symbol M); type: in vivo, velvetleaf (Abutilon theophrasti); details: foliage application, 320 g/ha, evaluated three weeks after application
Procedure, shortened: as §2

[27] = system: southern crabgrass; experiment: Test Example 4: herbicidal effect by soil treatment (Table 19, symbol F); type: in vivo, southern crabgrass (Digitaria ciliaris); details: 320 g/ha
Procedure, shortened: as §3

[28] = system: wild oat; experiment: Test Example 5: herbicidal effect by foliage application, plastic box (Table 20, symbol I); type: in vivo, wild oat (Avena fatua); details: foliage application, 320 g/ha, evaluated three weeks after application
Procedure, shortened: as §2

[29] = system: green foxtail; experiment: Test Example 5: herbicidal effect by foliage application, plastic box (Table 20, symbol G); type: in vivo, green foxtail (Setaria viridis); details: foliage application, 320 g/ha, evaluated three weeks after application
Procedure, shortened: as §2

[30] = system: redroot pigweed; experiment: Test Example 5: herbicidal effect by foliage application, plastic box (Table 20, symbol N); type: in vivo, redroot pigweed (Amaranthus retroflexus); details: foliage application, 320 g/ha, evaluated three weeks after application
Procedure, shortened: as §2

[31] = system: persian speedwell; experiment: Test Example 4: herbicidal effect by soil treatment (Table 19, symbol R); type: in vivo, Persian speedwell (Veronica persica); details: 320 g/ha
Procedure, shortened: as §3

[32] = system: false cleavers; experiment: Test Example 5: herbicidal effect by foliage application, plastic box (Table 20, symbol Q); type: in vivo, false cleavers (Galium spurium); details: foliage application, 320 g/ha, evaluated three weeks after application
Procedure, shortened: as §2

CCCC(=O)Oc1c(C)nn(C)c(=O)c1-c1c(-c2ccc3c(c2)OCCO3)sc2ccc(F)cc12 [2-093]
herbicidal effect on E (rice flat sedge), rating 0-5 [1]: 5 (Herbicidal rate of 90% or more (almost completely withered))
herbicidal effect on J: blackgrass [2]: 0 (Herbicidal rate of 5% or less (almost no effect))
herbicidal effect on L: windgrass [3]: 0 (Herbicidal rate of 5% or less (almost no effect))
herbicidal effect rating, J: blackgrass [4]: 0 (Herbicidal rate of 5% or less (almost no effect))
herbicidal effect on P: chickweed [5]: 5 (Herbicidal rate of 90% or more (almost completely withered))
herbicidal effect rating, B: Japanese bulrush [6]: 5 (Herbicidal rate of 90% or more (almost completely withered))
herbicidal effect on F: southern crabgrass [7]: 3 (Herbicidal rate of 40% or more and less than 70%)
herbicidal effect on R: persian speedwell [8]: 5 (Herbicidal rate of 90% or more (almost completely withered))
herbicidal effect rating, G: green foxtail [9]: 3 (Herbicidal rate of 40% or more and less than 70%)
herbicidal effect on H: barnyard grass [10]: 3 (Herbicidal rate of 40% or more and less than 70%)
herbicidal effect rating, C: oval-leafed pondweed [11]: 5 (Herbicidal rate of 90% or more (almost completely withered))
herbicidal effect on H (barnyard grass), rating 0-5 [12]: 5 (Herbicidal rate of 90% or more (almost completely withered))
herbicidal effect rating, O: lambsquarters [13]: 5 (Herbicidal rate of 90% or more (almost completely withered))
herbicidal effect on K: Italian ryegrass [14]: 0 (Herbicidal rate of 5% or less (almost no effect))
herbicidal effect rating, A: late watergrass [15]: 3 (Herbicidal rate of 40% or more and less than 70%)
herbicidal effect rating, M: velvetleaf [16]: 5 (Herbicidal rate of 90% or more (almost completely withered))
herbicidal effect rating, P: chickweed [17]: 4 (Herbicidal rate of 70% or more and less than 90%)
herbicidal effect rating, N: redroot pigweed [18]: 5 (Herbicidal rate of 90% or more (almost completely withered))
herbicidal effect rating, H: barnyard grass [19]: 3 (Herbicidal rate of 40% or more and less than 70%)
herbicidal effect on O: lambsquarters [20]: 5 (Herbicidal rate of 90% or more (almost completely withered))
herbicidal effect rating, I: wild oat [21]: 0 (Herbicidal rate of 5% or less (almost no effect))
herbicidal effect on D (Chinese sprangletop), rating 0-5 [22]: 2 (Herbicidal rate of 20% or more and less than 40%)
herbicidal effect rating, K: Italian ryegrass [23]: 0 (Herbicidal rate of 5% or less (almost no effect))
herbicidal effect rating, Q: false cleavers [24]: 3 (Herbicidal rate of 40% or more and less than 70%)
herbicidal effect rating, L: windgrass [25]: 0 (Herbicidal rate of 5% or less (almost no effect))
herbicidal effect on M: velvetleaf [26]: 5 (Herbicidal rate of 90% or more (almost completely withered))
herbicidal effect rating, F: southern crabgrass [27]: 3 (Herbicidal rate of 40% or more and less than 70%)
herbicidal effect on I: wild oat [28]: 0 (Herbicidal rate of 5% or less (almost no effect))
herbicidal effect on G: green foxtail [29]: 3 (Herbicidal rate of 40% or more and less than 70%)
herbicidal effect on N: redroot pigweed [30]: 5 (Herbicidal rate of 90% or more (almost completely withered))
herbicidal effect rating, R: persian speedwell [31]: 5 (Herbicidal rate of 90% or more (almost completely withered))
herbicidal effect on Q: false cleavers [32]: 4 (Herbicidal rate of 70% or more and less than 90%)
